# Results: PMC6956158, “In Vitro and In Vivo Assessment of Metabolic Drug Interaction Potential of Dutasteride with Ketoconazole” (Pharmaceutics, 2019)
# Key:
# [1] = Unbound fraction by rapid equilibrium dialysis, rat plasma; type: in vitro ADME
# Protocol: (§1) To investigate the metabolic interaction potential between DUT and KET, the disappearance of DUT (5 μM) in RLM and HLM was determined under the absence and presence of KET at various concentrations ranging from 1 to 5000 nM. A microsomal reaction mixture was prepared as follows (total volume: 0.2 mL): 1 mM NADPH, 10 mM MgCl2, substrate (DUT), and inhibitor (KET), RLM or HLM (1 mg/mL), and 50 mM phosphate buffer. At 0 and 90 min after starting the metabolic reaction, a 50 μL aliquot of microsomal incubation mixture was sampled and immediately transferred into a clean 1.5 mL microcentrifuge tube containing 100 μL cold ACN with an internal standard (celecoxib at 400 ng/mL) to stop the metabolic reaction. After vortex mixing and centrifugation at 15,000× g for 10 min, a 100 μL aliquot of the supernatant was stored at −80 °C. The unbound fractions of DUT in rat plasma, RLM, human plasma, and HLM were measured using a rapid equilibrium dialysis (RED) device (Thermo Fisher Scientific, Inc., Waltham, MA, USA) as described in a previous study. […] The fraction unbound was calculated as the ratio of the drug concentrations in the “buffer” chamber to those in the “sample” chamber. The blood-to-plasma concentration ratio (RB) of DUT was determined as described previously. […] The concentrations of DUT in the plasma sample were determined by the validated HPLC analysis.
# type-2 5AR = tested on: type-2 5AR; parameters: method as in PMID 16964191, PMID 16719800; details: previous in vitro studies; cited from earlier work
# [2] = Unbound fraction by rapid equilibrium dialysis, human plasma; type: in vitro ADME
# Protocol: as §1
# [3] = Blood-to-plasma concentration ratio (RB), blood distribution; type: in vitro ADME; details: rat, fresh rat blood, 37 °C
# Protocol: as §1
# [4] = Previous and preliminary rat studies of intravenous DUT; type: in vivo; details: rats, preliminary study
# [5] = Unbound fraction by rapid equilibrium dialysis, RLM; type: in vitro ADME, rat
# Protocol: as §1
# [6] = Stability in rat plasma (QC samples); type: in vitro ADME; details: n = 5; for Stability (percent drug remaining), Autosampler: 10 °C for 24 h in the autosampler; for Stability (percent drug remaining), Bench-Top: room temperature for 3 h; for Stability (percent drug remaining), Freeze-Thaw: three freezing and thawing cycles; for Stability (percent drug remaining), Long-Term: −20 °C for 30 days
# Protocol: The bioanalytical method proposed herein for the simultaneous determination of DUT and H-DUT was fully validated on the basis of the US FDA guideline. The selectivity of the method was evaluated by comparing chromatograms of the analytes (DUT, H-DUT, and internal standard) in blank rat plasma, blank rat plasma spiked with the analytes, and rat plasma sample obtained from the in vivo rat pharmacokinetic study. Further, the existence of potential interferences at the acquisition windows of the analytes was checked. The linearity of the method was evaluated by adding increasing amounts of DUT and H-DUT to the blank plasma. To construct calibration curves (n = 5), the peak area ratios of DUT or H-DUT to the internal standard (y-axis) were plotted against the nominal concentration ratios of DUT or H-DUT (10–1000 ng/mL) to the internal standard (400 ng/mL) (x-axis), and then, linear regression analysis was performed. The sensitivity was assessed by estimating the LLOQ (signal-to-noise [S/N] ratio > 5). The peaks of the analytes at the LLOQ should be discrete, identifiable, and reproducible with acceptable precision (<20%) and accuracy (within 80–120%). The extraction recovery, matrix effect, dilution integrity, and stability (under bench-top, freeze–thaw, post-preparative, and long-term conditions) in addition to the intra-assay (five different samples) and inter-assay (five different runs) precision and accuracy for each analyte were determined at the LLOQ and three different QC levels as described in the US FDA guidelines and in previous studies.
compound,measurement,setting,value
"C[C@]12C=CC(=O)N[C@@H]1CC[C@@H]1[C@@H]2CC[C@]2(C)[C@@H](C(=O)Nc3cc(C(F)(F)F)ccc3C(F)(F)F)CC[C@@H]12 [DUT, Dutasteride]","fraction of unbound DUT, presence versus absence of KET","[1]; DUT and KET 5 μM, n = 5",no significant differences
same,fraction unbound at 5 μM,"[1]; Sprague-Dawley, DUT 5 μM, RED device",0.0115
same,more potent inhibition of type-2 5AR compared to finasteride,type-2 5AR,2.5 fold
same,fraction unbound at 5 μM,"[2]; DUT 5 μM, RED device",0.0078
same,"fraction of unbound DUT, presence versus absence of KET","[2]; DUT and KET 5 μM, n = 5",no significant differences
same,"blood plasma ratio at 60 min, 5 μM",[3]; DUT 5 μM alone,0.712 ± 0.026
same,"blood plasma ratio at 60 min, 5 μM",[3]; DUT 5 μM in the presence of KET 5 μM,0.692 ± 0.036
same,renal excretion of DUT in the unchanged form,[4],less than 1 % of intravenously administered dose
same,"fraction of unbound DUT, presence versus absence of KET","[5]; RLM, DUT and KET 5 μM, n = 5",no significant differences
same,fraction unbound at 5 μM,"[5]; Sprague-Dawley, rat, rat liver microsomes, RLM 1 mg/mL, DUT 5 μM, RED device",0.0856
same,"Stability (percent drug remaining), Autosampler",[6]; HQC 750 ng/mL,102 ± 2%
same,"Stability (percent drug remaining), Bench-Top",[6]; HQC 750 ng/mL,102 ± 0%
same,"Stability (percent drug remaining), Freeze-Thaw",[6]; HQC 750 ng/mL,100 ± 0%
same,"Stability (percent drug remaining), Long-Term",[6]; HQC 750 ng/mL,105 ±1%
same,"Stability (percent drug remaining), Autosampler",[6]; LLOQ 10 ng/mL,103 ± 8%
same,"Stability (percent drug remaining), Bench-Top",[6]; LLOQ 10 ng/mL,108 ± 1%
same,"Stability (percent drug remaining), Freeze-Thaw",[6]; LLOQ 10 ng/mL,99.3 ± 4.7%
same,"Stability (percent drug remaining), Long-Term",[6]; LLOQ 10 ng/mL,105 ± 5%
same,"Stability (percent drug remaining), Autosampler",[6]; LQC 30 ng/mL,103 ± 1%
same,"Stability (percent drug remaining), Bench-Top",[6]; LQC 30 ng/mL,105 ± 6%
same,"Stability (percent drug remaining), Freeze-Thaw",[6]; LQC 30 ng/mL,99.7 ± 2.7%
same,"Stability (percent drug remaining), Long-Term",[6]; LQC 30 ng/mL,102 ± 4%
same,"Stability (percent drug remaining), Autosampler",[6]; MQC 150 ng/mL,104 ± 2%
same,"Stability (percent drug remaining), Bench-Top",[6]; MQC 150 ng/mL,103 ± 1%
same,"Stability (percent drug remaining), Freeze-Thaw",[6]; MQC 150 ng/mL,106 ± 2%
same,"Stability (percent drug remaining), Long-Term",[6]; MQC 150 ng/mL,100 ± 1%
